One compound from patent publication US11766409B2, “Core-shell polymer nanoparticle” (THE UNIVERSITY OF QUEENSLAND, priority 2018, dated 2023) can be followed below.

The structures appear in SMILES notation.

The test system of this series is tumor-bearing mice. The series can be described thus: In vivo anti-tumor therapeutic effect in tumor-bearing mice. Particulars: day 25 compared to day 0 post-injection; intravenous, every 72 hours, 5 injections. The method, then:
In vivo mice experiments were conducted to evaluate the anti-tumor therapeutic effects of PTX-loaded high (55K/SH-PTX; 39.6% drug loading) and low-drug loading formulations (55K/SH-PTX; 3.5% drug loading) in tumor-bearing mice. Four formulations (PBS, Free PTX, High DL NP, and Low DL NP_where DL is drug loading and NP is core-shell polymer nanoparticle) were injected intravenously every 72 hours for 5 injections in total. The body weight and tumor volume of the mice were monitored every two days. […] The weight increase was higher than the Low DL NP group (4.4% increase) and Free PTX group (2.9% increase).

The compound `CC(=O)O[C@H]1C(=O)[C@@]2(C)[C@H]([C@H](OC(=O)c3ccccc3)[C@]3(O)C[C@H](OC(=O)[C@H](O)[C@@H](NC(=O)c4ccccc4)c4ccccc4)C(C)=C1C3(C)C)[C@]1(OC(C)=O)CO[C@@H]1C[C@@H]2O` [Free PTX, paclitaxel] gave a body weight increase of 2.9%.
